Assay results: patent US20260014129A1, “MITOCHONDRIAL PYRUVATE METABOLISM INHIBITORS FOR TREATING CHRONIC MYELOID LEUKEMIA” (The University Court of the University of Glasgow, priority 2022, published 2026)

Tests used:
MPC = target: T1, MPC (Homo sapiens, UniProt O95563+Q9Y5U8); conditions: variety of cell types (ref 27); cited from earlier work
T1 sequence (Q9Y5U8 1-109): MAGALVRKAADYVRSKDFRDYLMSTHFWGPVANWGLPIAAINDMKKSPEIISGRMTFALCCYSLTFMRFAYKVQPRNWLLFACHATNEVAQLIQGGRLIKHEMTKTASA
T1 sequence (O95563 1-127): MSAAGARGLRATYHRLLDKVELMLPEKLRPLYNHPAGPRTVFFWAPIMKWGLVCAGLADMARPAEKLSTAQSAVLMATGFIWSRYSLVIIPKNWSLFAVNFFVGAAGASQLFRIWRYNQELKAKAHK

K562 CML cell line = assay: 13C6 glucose tracing in K562 CML cell line; assay type: cell-based, human; conditions: K562, several concentrations
Method: For conjugation of palmitate, a 20 mM stock was made in 100% EtOH. This was incubated on a shaking heater, 60° C. until the solution clarified. The palmitate was then added to 10% BSA (ultra-fatty acid free in EBSS, Roche, 03117057001) to give a palmitate:BSA ratio of 1:3 BSA. This solution was left for 15 min in water bath (37° C.), and then added to final concentration in complete medium. For cell line experiments, the medium was RPMI with 10% dialysed FBS and 1% penicillin/streptomycin. For tracing experiments 11 mM ^13C6 glucose was added to glucose-free RPMI.
Biological and technical replicates were processed through Autoplotter (56) and natural abundance was corrected for. Fraction of enrichment was calculated as m+2 and above. For CML samples treated with or without imatinib, multiple paired T-tests were conducted on Log 10 transformed values in Graphpad Prism. The correction for multiple comparisons was the two-stage step-up method of Benjamini, Krieger and Yekutieli with an FDR (Q) value of 10%. For volcano plots Log 10 FC vs Log 10 (q value) are plotted with q values>5% in red and >10% in blue. For normal vs CML comparisons, the process was the same with the exception that unpaired t-tests were used. For PC activity in normal vs CML, this is denoted by fraction m+3. For imatinib vs untreated we look at relative activity to PDH. IE., the m+3/m+2 ratio and conducted multiple t-tests with correction for multiple comparisons being the two-stage step-up method of Benjamini, Krieger and Yekutieli with an FDR (Q) value of 10%. To examine contribution to carbon pool we corrected contribution of each isotopologue by the number of carbons it contributes to a given metabolite, i.e., for glutamine contribution from m+5 is greater than m+3. Note that for cell line experiments standard deviation is shown.

FBS (Bos taurus) = test system: T2, FBS (Bos taurus); conditions: as previously reported (ref 44); cited from earlier work
T2 construct: host or cells: FBS in culture medium

CML CD34+ cells [1] = assay: Patient-derived xenograft of CML CD34+ cells in NRG-W41 mice, bone marrow flow cytometry; assay type: in vivo, human
Method: Treatment was given for 4 weeks. For treatment with asciminib (ABL001) plus MSDC-0160, twelve weeks following transplant, drug treatment was started with both asciminib (Fisher Scientific Cat #1642956) dosed at 10 mg/kg/day (5 mg/kg BID); oral gavage and MSDC-0160 (Apex Biotechnology: Cat #B3702) dosed at 30 mg/kg; oral gavage once daily. Treatment was given for 4 weeks. At the respective endpoints, bone marrow cells were collected. This was done by placing inverted cut leg bones into 0.5 mL Eppendorf tubes with holes at bottom. These in turn were placed within 1.5 mL Eppendorf tubes containing PBS, centrifuged (12,000 RCF, 20 seconds). Cells were stained (300 μl/test) with anti-mouse (APC-Cy7 BD Biosciences: Cat #557659, RRID: AB_396774, 1 μl), anti-human CD45 (FITC; BD Biosciences: Cat #555482, RRID: AB_395874, 10 μl), anti-human CD34 (APC; BD Biosciences: Cat #555824, RRID: AB_398614, 2 μl) and anti-human CD38 (PerCP; BioLegend: Cat #303520, RRID: AB_893313, 2 μl) antibodies for flow cytometry analysis as described above.

KCL22 cell line = assay: Imatinib sensitivity of PC knockout KCL22 cell line; assay type: cell-based, human; conditions: data not shown
CML CD34+ cells [2] = assay: Extracellular flux of spent medium by YSI bioanalyser; assay type: cell-based, human
Method: A YSI 2900 biochemistry analyser was used as per the manufacturer's instructions to quantify glucose, lactate, glutamine, and glutamate in the media. The concentration of each metabolite was normalised to cell number and the rate of uptake or secretion per hour was calculated relative to cell free medium. The exchange rate per 48 hours [secretion (+) or consumption (−)] for a specific metabolite (x) was obtained according to the following equation:

K562 cells = assay: Viability (Annexin V/7AAD) and CFC assays of vector control versus PC knockout K562 cells; assay type: cell-based, human; conditions: 72 hours; 600 nm imatinib or 100 nm omacetaxine
Method: (a) Western blot of PC and loading control (tubulin) from vector control or PC knockout K562 cells. (b) Proliferation of K562 cells from A. Shown is average and SEM from 3 independent experiments. (c) Fractional labelling from ^13C6 glucose into indicated metabolites of PC knockout cells are shown (n=3) after 24 hours. Plots were generated using Autoplotter, average and SD are plotted. Statistical analyses were conducted on the m+5 fraction. An ordinary one-way ANOVA was used with Dunnett's test used to correct for multiple comparisons. (d) Cells viability was measured using Annexin V and 7AAD. Cells were either left untreated (UT) or exposed for 72 hours to 600 nm imatinib or 100 nm omacetaxine (OMA). Shown is average and SEM from 4 independent experiments. An ordinary one-way ANOVA was used with Dunnett's test used to correct for multiple comparisons. (e) Colony Forming Cell (CFC) potential of control and […] cells. Cells were either left untreated (UT) or exposed for 72 hours to 600 nm imatinib. Shown is average and SEM from 4 independent experiments. An ordinary one-way ANOVA was used with Dunnett's test used to correct for multiple comparisons. […]

CML CD34+ cells [3] = assay: Mitochondrial respiratory capacity (FCCP-induced oxygen consumption rate); assay type: cell-based, human; conditions: imatinib-treated samples
[4] = combination of imatinib and MSDC-0160, 4 weeks

T2 sequence (P02769 25-607): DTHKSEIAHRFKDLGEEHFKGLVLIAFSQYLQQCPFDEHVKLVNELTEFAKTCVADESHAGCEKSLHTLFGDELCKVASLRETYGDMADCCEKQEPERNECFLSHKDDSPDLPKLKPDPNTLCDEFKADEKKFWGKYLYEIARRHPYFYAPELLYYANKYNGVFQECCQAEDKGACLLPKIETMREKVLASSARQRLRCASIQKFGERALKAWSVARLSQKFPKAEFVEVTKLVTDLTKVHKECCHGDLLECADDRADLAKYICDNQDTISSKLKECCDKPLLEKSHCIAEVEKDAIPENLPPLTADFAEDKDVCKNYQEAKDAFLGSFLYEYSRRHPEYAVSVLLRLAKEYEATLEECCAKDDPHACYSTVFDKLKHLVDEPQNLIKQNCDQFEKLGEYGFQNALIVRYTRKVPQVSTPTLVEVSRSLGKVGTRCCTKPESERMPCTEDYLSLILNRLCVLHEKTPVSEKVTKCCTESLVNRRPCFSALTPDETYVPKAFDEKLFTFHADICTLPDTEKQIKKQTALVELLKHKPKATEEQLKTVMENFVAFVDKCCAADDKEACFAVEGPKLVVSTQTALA

Structure (SMILES) | inhibition of MPC activity (MPC) | labelled fractions in alpha-ketoglutarate (AKG) and AKG-derived glutamate (K562 CML cell line) | glucose contribution to fraction of labelling (K562 CML cell line; data not shown) | binding to FBS (FBS (Bos taurus)) | percentage of human CML LSCs, MSDC-0160 on its own (CML CD34+ cells [1]; MSDC-0160 30 mg/kg once daily, 4 weeks, 12 weeks engraftment) | percentage of human CML LSCs, combination with ABL-001 (CML CD34+ cells [1]; MSDC-0160 30 mg/kg plus ABL-001 10 mg/kg/day, 4 weeks) | total numbers of CML CD45+CD34+CD38- cells (LSC) (CML CD34+ cells [1]; combination of ABL-001 and MSDC-0160 30 mg/kg, 4 weeks) | reduction in percentage of human CD45+ leukocytes and total number of bone marrow CD45+ cells (CML CD34+ cells [1]; combination of imatinib 50 mg/kg BID and MSDC-0160 30 mg/kg/day, 4 weeks) | percentage and absolute number of human CML LSCs (CD34+CD38-) (CML CD34+ cells [1]; [4]) | relative and total reduction of CD34+ cells versus vehicle or imatinib arms (CML CD34+ cells [1]; [4]) | sensitivity to the drug after knockout of PC in KCL22 (KCL22 cell line) | glucose consumption (CML CD34+ cells [2]; imatinib-treated vs control primary CML CD34+ cells) | glutamine consumption (CML CD34+ cells [2]; imatinib-treated vs untreated primary CML CD34+ cells) | sensitisation of K562 to the drug by PC ablation, viability and CFC assays (K562 cells) | mitochondrial respiratory capacity (FCCP-induced oxygen consumption rate) (CML CD34+ cells [3])
CCc1ccc(C(=O)COc2ccc(CC3SC(=O)NC3=O)cc2)nc1 (stereo not drawn) [MSDC-0160] | specifically inhibit MPC activity | reducing levels of all labelled fractions in these metabolites in a concentration-dependent manner | concentration-dependent reduction | high FBS binding | reduction in the percentage of human CML LSCs | reduction in the percentage of human CML LSCs | did not reduce the total numbers | did not reach statistical significance | marked reduction in both the percentage and absolute number | did not reach statistical significance | – | – | – | – | –
Cc1ccc(NC(=O)c2ccc(CN3CCN(C)CC3)cc2)cc1Nc1nccc(-c2cccnc2)n1 [imatinib] | – | – | – | – | – | – | – | – | – | – | failed to increase sensitivity | consumed less glucose than control cells, when corrected for a decrease in proliferation this difference disappeared | decreased | sensitised | reduced
